According to patent publication US20240109912A1, “TRICYCLIC PYRIMIDINES AS CYCLIN-DEPENDENT KINASE 7 (CDK7) INHIBITORS” (JANSSEN PHARMACEUTICA NV, priority 2020, published 2024):

Experiments:
[1] = system: RNA polymerase II Serine 5 phosphorylation (CDK7) in A549 cells
[2] = system: RNA polymerase II Serine 5 phosphorylation in A549 cells overexpressing CDK7 mutant (C312S); assay: Imaging-based cellular RNA PolII Ser5 phosphorylation assay in A549 cells overexpressing CDK7-mutant (C312S); type: cell-based, human; conditions: for IC50: Homo sapiens, A549, A549 cells overexpressing CDK7 mutant (C312S), read-out: CDK7_ A549 mutant hCDK7(pIC50) (converted); for CDK7_ A549 mutant hCDK7(pIC50): A549 cells overexpressing CDK7 mutant (C312S)
Method: Data were calculated and analyzed in Phaedra.
From this an IC50 value can be obtained.
In parallel this assay was performed in A549 cells overexpressing CDK7-mutant (C312S) to evaluate the effect of the covalent bond on potency and to screen for potential off-target effects. Mutation of Cysteine to Serine (C312S), a less nucleophilic amino acid, prevents CDK7 inhibitors from covalently binding to CDK7 and from inhibiting CDK7 activity in an irreversible manner. A stably transduced A549 cell pool was generated that overexpresses CDK7 mutant (C312S), but also expresses endogenous CDK7-WT. Covalent binders targeting the cysteine at position 312 will show a shift in potency in A549 cells overexpressing mutant C312S CDK7.

Row | IC50 [1] | IC50 [2] | CDK7_ A549 mutant hCDK7(pIC50) [2] | Compound
1 | 83.2 nM | > 10000 nM |  | CC#CC(=O)N1CC[C@H](N2CCC(c3cc(C)c4c(c3)Nc3ncnc(N5CCS(=O)(=O)CC5)c3CO4)CC2)C1 (single isomer, unassigned) [compound 134]
2 | ~50.1 nM | > 10000 nM |  | CC#CC(=O)N1CC[C@@H](N2CCC(c3cc(C)c4c(c3)Nc3ncnc(N5CCS(=O)(=O)CC5)c3CO4)CC2)C1 (single isomer, unassigned) [compound 135]
3 | ~14.5 nM | 4570 nM |  | CC#CC(=O)N1CC[C@@](C)(N2CCC(c3cc(C)c4c(c3)Nc3ncnc(N5CCS(=O)(=O)CC5)c3[C@@H](C)O4)CC2)C1 (single isomer, unassigned) [compound 145]
4 | < 2.45 nM | 4370 nM |  | CC#CC(=O)N1CC[C@](C)(N2CCC(c3cc(C)c4c(c3)Nc3ncnc(N5CCS(=O)(=O)CC5)c3[C@@H](C)O4)CC2)C1 (single isomer, unassigned) [compound 146]
5 | 178 nM | > 10000 nM |  | [2H][C@]1(N2CC(c3cc(C)c4c(c3)Nc3ncnc(N5CCS(=O)(=O)CC5)c3[C@@H](C)O4)C2)CCN(C(=O)C#CC)C1 (single isomer, unassigned) [compound 159]
6 | 105 nM | > 10000 nM |  | [2H]C([2H])([2H])C#CC(=O)N1CC[C@@H](N2CC(c3cc(C)c4c(c3)Nc3ncnc(N5CCS(=O)(=O)CC5)c3[C@@H](C)O4)C2)C1 (single isomer, unassigned) [compound 165]
7 | 141 nM | > 10000 nM |  | [2H]C([2H])([2H])C#CC(=O)N1CC[C@H](N2CC(c3cc(C)c4c(c3)Nc3ncnc(N5CCS(=O)(=O)CC5)c3[C@@H](C)O4)C2)C1 (single isomer, unassigned) [compound 166]
8 | 55 nM | > 10000 nM |  | CCC#CC(=O)N1CC[C@@H](N2CC(c3cc(C)c4c(c3)Nc3ncnc(N5CCS(=O)(=O)CC5)c3[C@@H](C)O4)C2)C1 (single isomer, unassigned) [compound 167]
9 | 132 nM | > 10000 nM |  | CCC#CC(=O)N1CC[C@H](N2CC(c3cc(C)c4c(c3)Nc3ncnc(N5CCS(=O)(=O)CC5)c3[C@@H](C)O4)C2)C1 (single isomer, unassigned) [compound 168]
10 | < 9.77 nM | 7240 nM |  | Cc1cc(C2CN([C@H]3CCN(C(=O)C#CCN(C)C)C3)C2)cc2c1O[C@H](C)c1c(ncnc1N1CCS(=O)(=O)CC1)N2 (single isomer, unassigned) [compound 170]
11 | < 9.77 nM | 8510 nM |  | Cc1cc(C2CN([C@@H]3CCN(C(=O)C#CCN(C)C)C3)C2)cc2c1O[C@H](C)c1c(ncnc1N1CCS(=O)(=O)CC1)N2 (single isomer, unassigned) [compound 171]
12 | < 9.77 nM | 9120 nM |  | Cc1cc(C2CN([C@H]3CCN(C(=O)C#CCCN(C)C)C3)C2)cc2c1O[C@H](C)c1c(ncnc1N1CCS(=O)(=O)CC1)N2 (single isomer, unassigned) [compound 176]
13 | ~12.9 nM | 7240 nM |  | Cc1cc(C2CN([C@@H]3CCN(C(=O)C#CCCN(C)C)C3)C2)cc2c1O[C@H](C)c1c(ncnc1N1CCS(=O)(=O)CC1)N2 (single isomer, unassigned) [compound 177]
14 | ~380 nM | > 10000 nM |  | CC#CC(=O)N1CCOC([C@H]2C[C@H](c3cc(C)c4c(c3)Nc3ncnc(N5CCS(=O)(=O)CC5)c3[C@@H](C)O4)C2)C1 (single isomer, unassigned) [compound 185]
15 | 269 nM |  | <5 | CC#CC(=O)N1CCOC([C@H]2C[C@H](c3cc(C)c4c(c3)Nc3ncnc(N5CCS(=O)(=O)CC5)c3[C@@H](C)O4)C2)C1 (single isomer, unassigned) [compound 186]
16 | 6170 nM | > 10000 nM |  | CC#CC(=O)N1CCOC([C@H]2C[C@@H](c3cc(C)c4c(c3)Nc3ncnc(N5CCS(=O)(=O)CC5)c3[C@@H](C)O4)C2)C1 (single isomer, unassigned) [compound 187]
17 | 389 nM |  | <5 | CC#CC(=O)N1CCOC([C@H]2C[C@@H](c3cc(C)c4c(c3)Nc3ncnc(N5CCS(=O)(=O)CC5)c3[C@@H](C)O4)C2)C1 (single isomer, unassigned) [compound 188]

Row | IC50 [1] | IC50 [2] | CDK7_ A549 mutant hCDK7(pIC50) [2] | Compound
18 | 87.1 nM | > 10000 nM |  | C=CC(=O)N1CC(N2CCC(c3cc(C)c4c(c3)Nc3ncnc(N5CCOC6(COC6)C5)c3CO4)CC2)C1 [compound 68]
19 | > 10000 nM | > 10000 nM |  | C=CC(=O)N1CC(N2CCC(c3cc(C)c4c(c3)Nc3ncnc(N5CCC(S(C)(=O)=O)CC5)c3CO4)CC2)C1 [compound 70]
20 | 204 nM | > 10000 nM |  | C=CC(=O)N1CCC(N2CC(c3cc(C)c4c(c3)Nc3ncnc(N5CCS(=O)(=O)CC5)c3CO4)C2)C1 (stereo not drawn) [compound 112]
21 | 513 nM | > 10000 nM |  | CC#CC(=O)N1CC[C@H](N2CC(c3cc(C)c4c(c3)Nc3ncnc(N5CCS(=O)(=O)CC5)c3CO4)C2)C1 [compound 126]
22 | 513 nM | > 10000 nM |  | CC#CC(=O)N1CC[C@@H](N2CC(c3cc(C)c4c(c3)Nc3ncnc(N5CCS(=O)(=O)CC5)c3CO4)C2)C1 [compound 127]
23 | 813 nM | > 10000 nM |  | CC#CC(=O)N1CC(N2CC(c3cc(C)c4c(c3)Nc3ncnc(N5CCS(=O)(=O)CC5)c3CO4)C2)C1 [compound 132]
24 | 162 nM |  | <5 | CC#CC(=O)N1CC[C@@H](N2CC(c3cc(C)c4c(c3)Nc3ncnc(N5CCS(=O)(=O)CC5)c3[C@@H](C)O4)C2)C1 [compound 141]
25 | 355 nM |  | <5 | CC#CC(=O)N1CC[C@H](N2CC(c3cc(C)c4c(c3)Nc3ncnc(N5CCS(=O)(=O)CC5)c3[C@@H](C)O4)C2)C1 [compound 142]
26 | 912 nM | > 10000 nM |  | CC#CC(=O)N1CC(OC2CCN(c3cc(C)c4c(c3)Nc3ncnc(N5CCS(=O)(=O)CC5)c3[C@@H](C)O4)CC2)C1 [compound 143]
27 | 64.6 nM | ~8320 nM |  | CC#CC(=O)N1CCC(N2CCC(c3cc(C)c4c(c3)Nc3ncnc(N5CCS(=O)(=O)CC5)c3CO4)CC2)C1 (stereo not drawn) [compound 152]
28 | < 2.45 nM | 1950 nM |  | CC#CC(=O)N1CCC(N2CCC(c3cc(C)c4c(c3)Nc3ncnc(N5CCS(=O)(=O)CC5)c3[C@@H](C)O4)CC2)CC1 [compound 156]
29 | 75.9 nM |  | 5.12 | CC#CC(=O)N1CC(N2CCC(c3cc(C)c4c(c3)Nc3ncnc(N5CCS(=O)(=O)CC5)c3[C@@H](C)O4)CC2)C1 [compound 157]
30 | 74.1 nM |  | ~5.22 | CC#CC(=O)N1CC(N2CCC(c3cc(C)c4c(c3)Nc3ncnc(N5CCS(=O)(=O)CC5)c3[C@@H](C)O4)CC2)C1 [compound 158]
31 | < 9.77 nM | > 10000 nM |  | CC#CC(=O)N1CCN([C@H]2CC[C@H](c3cc(C)c4c(c3)Nc3ncnc(N5CCS(=O)(=O)CC5)c3[C@@H](C)O4)CC2)CC1 [compound 161]
32 | 209 nM | > 10000 nM |  | CC#CC(=O)N1CCN([C@H]2CC[C@@H](c3cc(C)c4c(c3)Nc3ncnc(N5CCS(=O)(=O)CC5)c3[C@@H](C)O4)CC2)CC1 [compound 162]
33 | ~31.6 nM | > 10000 nM |  | CCC#CC(=O)N1CC(N2CCC(c3cc(C)c4c(c3)Nc3ncnc(N5CCS(=O)(=O)CC5)c3[C@@H](C)O4)CC2)C1 [compound 163]
